From US20170253601A1, “Substituted Pyrrolidine Compounds” (EPIZYME, INC., priority 2014, published 2017)

Molecular target: T1, SMYD2 (Homo sapiens, UniProt Q9NRG4)
T1 construct: Full length SMYD2 (NP 064582.2) was cloned; His6 (N, cleaved yes); FLAG (N); made in house; host or cells: Sf9 insect cells
Test: SMYD2 Biochemical Assay (3H-SAM, biotinylated peptide substrate, Flashplate)
Conditions: IC50 values are an average of n = 1 to n = 50; read-out: SMYD2 Biochem IC50 (μM)*
Procedure, shortened: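 Methyltransferase activity tracked as 3H transfer from 10 nM 3H-SAM to 60 nM biotinylated peptide, counted after streptavidin Flashplate capture and normalised to DMSO and 1000 uM SAH controls. Enzyme: 1.5 nM full-length Sf9-expressed SMYD2, 30 min compound pre-incubation at room temperature, in Bicine pH 7.6 buffer with 2% DMSO; reactions quenched with 600 uM unlabelled SAM; IC50 from 3- or 4-parameter fit.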

T1 sequence (Q9NRG4 whole entry): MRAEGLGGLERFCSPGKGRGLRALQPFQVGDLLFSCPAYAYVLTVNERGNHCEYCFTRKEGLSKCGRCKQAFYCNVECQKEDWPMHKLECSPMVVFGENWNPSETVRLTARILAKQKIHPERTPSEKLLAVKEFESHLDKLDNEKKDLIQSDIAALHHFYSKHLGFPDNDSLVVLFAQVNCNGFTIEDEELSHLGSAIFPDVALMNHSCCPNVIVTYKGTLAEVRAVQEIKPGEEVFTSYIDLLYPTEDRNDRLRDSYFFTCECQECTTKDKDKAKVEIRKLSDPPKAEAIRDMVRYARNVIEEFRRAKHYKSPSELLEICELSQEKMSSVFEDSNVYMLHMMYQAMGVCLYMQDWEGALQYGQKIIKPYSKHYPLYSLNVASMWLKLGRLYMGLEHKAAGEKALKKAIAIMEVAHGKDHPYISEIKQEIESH

`CC(C)c1cc(C(=O)N[C@H]2C[C@H](CNC(=O)c3ccccc3)N(C3CC3)C2)no1` (stereo in doubt) [compound 189, (±)-trans-N-[1-cyclopropyl-5-[(phenyl-formamido)methyl]pyrrolidin-3-yl]-5-(propan-2-yl)-1,2-oxazole-3-carboxamide] and `CC(C)c1cc(C(=O)N[C@@H]2C[C@@H](CNC(=O)c3ccccc3)N(C3CC3)C2)no1` (stereo in doubt) [compound 242, (±)-trans-N-[1-cyclo-propyl-5-[(phenyl-formamido)methyl]pyrrolidin-3-yl]-5-(propan-2-yl)-1,2-oxazole-3-carboxamide] cannot be ordered by IC50: > 50 µM for the first, > 50 µM for the second.

`CC(C)c1cc(C(=O)N[C@H]2C[C@H](CNC(=O)C3CCCCC3)N(C3CC3)C2)no1` (stereo in doubt) [compound 190, (±)-trans-N-[5-[(cyclohexyl-formamido)methyl]-1-cyclopropylpyrrolidin-3-yl]-5-(propan-2-yl)-1,2-oxazole-3-carboxamide] and `CC(C)c1cc(C(=O)N[C@@H]2C[C@@H](CNC(=O)C3CCCCC3)N(C3CC3)C2)no1` (stereo in doubt) [compound 243, (±)-trans-N-[5-[(cyclo-hexylformamido)methyl]-1-cyclopropylpyrrolidin-3-yl]-5-(propan-2-yl)-1,2-oxazole-3-carboxamide] cannot be ordered by IC50: > 50 µM for the first, > 50 µM for the second.

`CC(C)N1C[C@@H](NC(=O)c2cc(C3CC3)on2)C[C@@H]1COCC#CC1CCCCC1` (stereo in doubt) [compound 236, (±)-trans-N-[5-{[(3-cyclo-hexylprop-2-yn-1-yl)oxy]methyl}-1-(propan-2-yl)pyrrolidin-3-yl]-5-cyclopropyl-1,2-oxazole-3-carboxamide] and `CC(C)N1C[C@H](NC(=O)c2cc(C3CC3)on2)C[C@H]1COCC#CC1CCCCC1` (stereo in doubt) [compound 244, (±)-trans-N-[5-{[(3-cyclo-hexylprop-2-yn-1-yl)oxy]methyl}-1-(propan-2-yl)pyrrolidin-3-yl]-5-cyclopropyl-1,2-oxazole-3-carboxamide] cannot be ordered by IC50: > 50 µM for the first, > 50 µM for the second.

Going from `CC(C)N1C[C@H](NC(=O)c2cc(C3CC3)on2)C[C@@H]1COCC#Cc1ccccc1` (stereo in doubt) [compound 238, (±)-cis-5-cyclopropyl-N-[5-{[(3-phenylprop-2-yn-1-yl)oxy]methyl}-1-(propan-2-yl)pyrrolidin-3-yl]-1,2-oxazole-3-carboxamide] to `CC(C)N1C[C@@H](NC(=O)c2cc(C3CC3)on2)C[C@H]1COCC#Cc1ccccc1` (stereo in doubt) [compound 240, (±)-cis-5-cyclopropyl-N-[(5-{[(3-phenylprop-2-yn-1-yl)oxy]methyl}-1-(propan-2-yl)pyrrolidin-3-yl]-1,2-oxazole-3-carboxamide], the IC50 rises from 39.7 µM to > 50 µM. The first is the more potent here.

`CC(N1C[C@H](C)[C@H](NC(=O)c2cc(C3CC3)on2)C1)C(F)(F)F` (stereo in doubt) [compound 285, trans-5-cyclopropyl-N-[4-methyl-1-(1,1,1-trifluoropropan-2-yl)pyrrolidin-3-yl]-1,2-oxazole-3-carboxamide] and `CC(N1C[C@@H](C)[C@H](NC(=O)c2cc(C3CC3)on2)C1)C(F)(F)F` (stereo partly drawn) [compound 247, trans-5-cyclopropyl-N-[(3S,4R)-4-methyl-1-(1,1,1-trifluoropropan-2-yl)pyrrolidin-3-yl]-1,2-oxazole-3-carboxamide] cannot be ordered by IC50: > 50 µM for the first, > 50 µM for the second.

Compared with `C[C@H](c1ccccc1)N1C[C@@H](CO)[C@H](NC(=O)c2cc(C3CC3)on2)C1` [compound 119, 5-cyclopropyl-N-[(3S,4R)-4-(hydroxymethyl)-1-[(1R)-1-phenylethyl]pyrrolidin-3-yl]-1,2-oxazole-3-carboxamide], `CC(C)N1CC(CNC(=O)c2ccccc2)C(NC(=O)c2cc(C3CC3)on2)C1` (centres unmarked) [compound 237, 5-cyclopropyl-N-{4-[(phenylformamido)methyl]-1-(propan-2-yl)pyrrolidin-3-yl}-1,2-oxazole-3-carboxamide] is 3.6-fold lower in IC50: 38.2 µM for the first, 10.5 µM for the second. The second is the more potent here.

Going from `O=C(N[C@@H]1CN(C2CC2)C[C@H]1CO)c1cc(C2CC2)on1` [compound 168, 5-cyclopropyl-N-[(3S,4R)-1-cyclopropyl-4-(hydroxymethyl)pyrrolidin-3-yl]-1,2-oxazole-3-carboxamide] to `C[C@@H]1CN(C2CC2)C[C@@H]1NC(=O)c1cc(C2CC2)on1` [compound 235, 5-cyclopropyl-N-[(3R,4R)-1-cyclopropyl-4-methyl-pyrrolidin-3-yl]-1,2-oxazole-3-carboxamide], the IC50 falls from 43.2 µM to 1.15 µM (38-fold).

Going from `C[C@@H]1CN(Cc2ccc3nonc3c2)C[C@H]1NC(=O)c1cc(C2CC2)on1` [compound 182, N-[(3S,4R)-1-(2,1,3-benzoxadiazol-5-ylmethyl)-4-methyl-pyrrolidin-3-yl]-5-cyclopropyl-1,2-oxazole-3-carboxamide] to `CC(C)N1C[C@@H](C)[C@@H](NC(=O)c2cc(C3CC3)on2)C1` [compound 234, 5-cyclopropyl-N-[(3R,4R)-4-methyl-1-(propan-2-yl)pyrrolidin-3-yl]-1,2-oxazole-3-carboxamide], the IC50 falls from > 50 µM to 0.682 µM.

Compared with `CC(C)N1C[C@@H](NC(=O)c2cc(C3CC3)on2)[C@](C)(O)C1` [compound 245, 5-cyclopropyl-N-[(3R,4R)-4-hydroxy-4-methyl-1-(propan-2-yl)pyrrolidin-3-yl]-1,2-oxazole-3-carboxamide], `CC(C)N1C[C@H](NC(=O)c2cc(C3CC3)on2)[C@@](C)(O)C1` [compound 246, 5-cyclopropyl-N-[(3S,4S)-4-hydroxy-4-methyl-1-(propan-2-yl)pyrrolidin-3-yl]-1,2-oxazole-3-carboxamide] is higher in IC50: 6.8 µM for the first, > 50 µM for the second. The first is the more potent here.

Same assay, conditions: Table 1; average of n = 1 to n = 50; read-out: SMYD2 Biochem IC50

`O=C(NC1CCN(C2CC2)C1)c1cc(C2CC2)on1` (centres unmarked) [compound 36, 5-cyclopropyl-N-(1-cyclopropylpyrrolidin-3-yl)isoxazole-3-carboxamide] and `O=C(NC1CNCC1O)c1cc(C2CC2)on1` (centres unmarked) [compound 37, 5-cyclopropyl-N-(4-hydroxypyrrolidin-3-yl)isoxazole-3-carboxamide] are within 1.5-fold of each other in IC50: 32.5 µM for the first, 36.1 µM for the second.

Compared with `CC(C)N1C[C@@H](C)[C@H](NC(=O)c2cc(C3CC3)on2)C1` [compound 41, 5-cyclopropyl-N-((3S,4R)-1-isopropyl-4-methylpyrrolidin-3-yl)isoxazole-3-carboxamide], `CC(C)N1C[C@H](NC(=O)c2cc(C3CC3)on2)[C@@H](C)C1` [compound 42, 5-cyclopropyl-N-((3R,4S)-1-isopropyl-4-methyl-pyrrolidin-3-yl)isoxazole-3-carboxamide] is 9.6-fold lower in IC50: 18.2 µM for the first, 1.9 µM for the second.

System: esophageal, liver and breast cancer cell lines
Test: not given
Conditions: several esophageal, dose-dependent; cited from earlier work

In the case of `Cc1cn(CCN2CCN(c3ccccc3-c3cc(C#N)cc(C(=O)NCCCN4CCCC4)c3)CC2)c2ccccc12` [LLY-507], the “inhibition of proliferation of cancer cell lines” value is listed as “inhibited the proliferation”.
